Measurements taken from patent US20260217727A1, “COMPOUNDS DERIVED FROM DIHYDROPIRIDINES, PHARMACEUTICAL COMPOSITIONS COMPRISING SAID COMPOUNDS AND METHOD OF TREATMENT OF MUSCLE DISORDERS COMPRISING ADMINISTRATION OF SAID COMPOSITIONS” (UNIVERSIDAD DE CHILE, priority 2023, published 2026).
Entries after “also recorded” stand apart in the source; their conditions may differ.

How the values were obtained:
[1] = test system: muscle fibers of normal mice; assay: qPCR of proinflammatory genes in muscle fibers exposed to extracellular ATP; assay type: cell-based, mouse; settings: 300 μM extracellular ATP for 2 h
Procedure: Total RNA from the isolated muscle fiber culture was extracted using TRIzol (Invitrogen) according to the manufacturer's protocol. The cDNA was obtained by reverse transcription from 1 μg of total RNA, using the enzyme SuperScript II (Invitrogen) according to the manufacturer's protocol. Real-time qPCR assays were performed using a thermocycler (Stratagene Mx300P, Agilent) according to the following protocol. The reaction mix will be given by 1 μL 10×dNTPs, 0.5 μL sense primer (10 pmol/μL), 0.5 μL antisense primer (10 pmol/μL), 4 μL EVA Green (Invitrogen) and 1 μL cDNA. The final volume of the mix was brought to 20 μL by adding nuclease-free water. All primers have an optimal amplification efficiency (between 90-110%). In any case, the analysis of the data was carried out considering a correction of the amplification cycle of each gene according to the amplification efficiency of the primers. The thermocycling conditions were the following: 1 cycle of 12 min at 95° C., followed by 40 cycles of 15 at 95° C. […] The Ct value was determined by the MXPro software when the fluorescence level is 25% higher than the basal fluorescence. […]
Increases in proinflammatory markers have been reported in the muscles of older adults, as part of the process of losing muscle mass. Therefore, the effect of chronic exposure to high levels of extracellular ATP on mRNA levels of proinflammatory genes was evaluated. […]

[2] = biological target: T1, Cav1.1 channels (dihydropyridine receptors) (Mus musculus, UniProt Q02789); assay: Whole cell voltage-clamp measurement of L-type Ca2+ currents in isolated fdb muscle fibers; assay type: cell-based; settings: L-type calcium peak current, mouse skeletal muscle fibers, control = maximum current without drug, read-out: % inhibition of Ca^2+ current
T1 construct: endogenous in cells; host or cells: single skeletal muscle fibers isolated from C57 mouse flexor digitorum brevis (FDB) muscle
T1 sequence (Q02789 whole entry): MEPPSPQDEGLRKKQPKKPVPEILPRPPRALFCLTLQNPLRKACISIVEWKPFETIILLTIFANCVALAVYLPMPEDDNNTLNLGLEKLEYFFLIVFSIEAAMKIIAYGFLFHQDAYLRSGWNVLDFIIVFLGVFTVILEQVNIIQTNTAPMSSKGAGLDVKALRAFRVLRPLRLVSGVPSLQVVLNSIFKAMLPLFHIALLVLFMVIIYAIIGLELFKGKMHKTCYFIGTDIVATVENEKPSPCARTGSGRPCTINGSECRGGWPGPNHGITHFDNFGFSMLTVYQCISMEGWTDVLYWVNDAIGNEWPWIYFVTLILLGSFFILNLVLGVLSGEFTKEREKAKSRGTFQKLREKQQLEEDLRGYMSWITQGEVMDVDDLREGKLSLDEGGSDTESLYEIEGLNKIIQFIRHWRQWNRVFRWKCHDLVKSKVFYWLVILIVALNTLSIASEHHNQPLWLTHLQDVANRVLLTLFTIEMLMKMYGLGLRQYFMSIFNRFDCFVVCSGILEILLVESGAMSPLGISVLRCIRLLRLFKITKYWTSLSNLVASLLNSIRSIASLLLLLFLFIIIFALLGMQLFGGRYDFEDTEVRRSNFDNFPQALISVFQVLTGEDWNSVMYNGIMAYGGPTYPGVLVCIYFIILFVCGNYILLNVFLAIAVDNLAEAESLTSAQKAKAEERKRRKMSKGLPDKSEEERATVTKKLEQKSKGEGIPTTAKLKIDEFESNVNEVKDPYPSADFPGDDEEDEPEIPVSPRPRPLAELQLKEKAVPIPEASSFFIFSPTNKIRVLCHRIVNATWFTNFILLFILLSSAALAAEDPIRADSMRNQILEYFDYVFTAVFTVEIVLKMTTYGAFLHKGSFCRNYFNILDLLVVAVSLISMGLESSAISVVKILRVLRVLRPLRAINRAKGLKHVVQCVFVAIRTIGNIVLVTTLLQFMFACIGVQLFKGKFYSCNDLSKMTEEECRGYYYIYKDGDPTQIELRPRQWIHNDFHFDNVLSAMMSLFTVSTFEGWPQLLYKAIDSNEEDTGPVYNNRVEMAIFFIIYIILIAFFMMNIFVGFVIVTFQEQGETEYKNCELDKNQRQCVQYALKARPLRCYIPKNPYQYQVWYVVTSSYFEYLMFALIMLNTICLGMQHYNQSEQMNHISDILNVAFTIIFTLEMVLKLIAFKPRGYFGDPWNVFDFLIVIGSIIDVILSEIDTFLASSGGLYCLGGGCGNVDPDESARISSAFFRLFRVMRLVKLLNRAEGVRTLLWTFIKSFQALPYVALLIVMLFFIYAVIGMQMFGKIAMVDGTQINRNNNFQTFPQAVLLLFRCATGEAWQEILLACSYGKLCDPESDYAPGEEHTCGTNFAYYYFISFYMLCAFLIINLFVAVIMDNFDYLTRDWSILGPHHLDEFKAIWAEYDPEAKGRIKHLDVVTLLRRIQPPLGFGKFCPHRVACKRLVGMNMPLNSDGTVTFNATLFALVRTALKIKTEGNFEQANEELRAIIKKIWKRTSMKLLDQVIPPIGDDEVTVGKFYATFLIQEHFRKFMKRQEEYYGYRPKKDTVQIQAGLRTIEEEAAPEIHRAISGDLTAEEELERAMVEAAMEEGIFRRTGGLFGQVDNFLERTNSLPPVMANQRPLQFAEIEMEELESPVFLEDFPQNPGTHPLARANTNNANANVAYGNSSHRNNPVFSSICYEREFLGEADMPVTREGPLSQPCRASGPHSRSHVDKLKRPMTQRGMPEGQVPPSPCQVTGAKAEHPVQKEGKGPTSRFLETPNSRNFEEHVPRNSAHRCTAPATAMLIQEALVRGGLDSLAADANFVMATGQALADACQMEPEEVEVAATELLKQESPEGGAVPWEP
T1 sequence (Q8R3Z5 whole entry partner): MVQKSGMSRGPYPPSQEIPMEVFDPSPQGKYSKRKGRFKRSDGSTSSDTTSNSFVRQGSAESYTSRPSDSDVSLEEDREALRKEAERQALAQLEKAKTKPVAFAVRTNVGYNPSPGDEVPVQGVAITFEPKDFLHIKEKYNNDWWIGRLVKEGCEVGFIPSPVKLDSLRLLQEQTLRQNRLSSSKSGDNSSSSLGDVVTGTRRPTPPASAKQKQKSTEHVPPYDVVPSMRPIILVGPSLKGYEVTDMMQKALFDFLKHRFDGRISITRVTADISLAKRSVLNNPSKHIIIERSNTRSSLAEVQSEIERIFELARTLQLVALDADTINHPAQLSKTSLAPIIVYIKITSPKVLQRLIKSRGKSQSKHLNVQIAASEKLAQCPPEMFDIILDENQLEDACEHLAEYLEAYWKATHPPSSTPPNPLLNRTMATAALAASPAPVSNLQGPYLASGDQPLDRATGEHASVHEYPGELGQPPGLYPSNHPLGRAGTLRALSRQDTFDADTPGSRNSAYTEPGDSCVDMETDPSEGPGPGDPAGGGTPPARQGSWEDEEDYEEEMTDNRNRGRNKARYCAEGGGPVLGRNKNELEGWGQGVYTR
T1 sequence (O08532 25-1103 partner): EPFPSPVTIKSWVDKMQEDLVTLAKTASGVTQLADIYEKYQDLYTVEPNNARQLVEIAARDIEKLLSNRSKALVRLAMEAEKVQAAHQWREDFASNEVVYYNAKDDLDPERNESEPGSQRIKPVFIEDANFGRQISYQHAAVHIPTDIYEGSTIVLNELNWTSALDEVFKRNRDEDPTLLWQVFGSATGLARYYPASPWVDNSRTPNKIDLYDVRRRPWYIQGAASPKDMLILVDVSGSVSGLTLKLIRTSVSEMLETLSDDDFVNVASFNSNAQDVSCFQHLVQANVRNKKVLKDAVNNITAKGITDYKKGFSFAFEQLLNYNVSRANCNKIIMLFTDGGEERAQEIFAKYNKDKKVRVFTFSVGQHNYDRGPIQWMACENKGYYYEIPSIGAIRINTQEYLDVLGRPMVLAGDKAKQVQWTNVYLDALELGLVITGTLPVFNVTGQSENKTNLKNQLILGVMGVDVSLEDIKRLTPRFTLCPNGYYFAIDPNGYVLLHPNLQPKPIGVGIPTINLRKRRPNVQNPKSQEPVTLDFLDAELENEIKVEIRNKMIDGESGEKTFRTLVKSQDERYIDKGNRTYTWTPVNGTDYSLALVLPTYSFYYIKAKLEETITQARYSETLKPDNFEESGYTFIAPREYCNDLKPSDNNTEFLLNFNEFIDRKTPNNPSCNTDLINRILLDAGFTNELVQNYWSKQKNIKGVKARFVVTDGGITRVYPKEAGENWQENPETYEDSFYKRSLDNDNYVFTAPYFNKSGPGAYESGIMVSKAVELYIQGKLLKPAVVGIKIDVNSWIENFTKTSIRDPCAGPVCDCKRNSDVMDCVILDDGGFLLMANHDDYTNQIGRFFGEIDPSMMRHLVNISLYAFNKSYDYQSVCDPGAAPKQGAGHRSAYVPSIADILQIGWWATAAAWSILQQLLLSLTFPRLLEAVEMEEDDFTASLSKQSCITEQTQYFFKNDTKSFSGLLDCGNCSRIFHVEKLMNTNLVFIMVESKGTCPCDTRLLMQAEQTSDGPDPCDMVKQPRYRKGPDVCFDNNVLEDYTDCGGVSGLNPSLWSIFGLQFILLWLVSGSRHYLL
T1 sequence (O70578 whole entry partner): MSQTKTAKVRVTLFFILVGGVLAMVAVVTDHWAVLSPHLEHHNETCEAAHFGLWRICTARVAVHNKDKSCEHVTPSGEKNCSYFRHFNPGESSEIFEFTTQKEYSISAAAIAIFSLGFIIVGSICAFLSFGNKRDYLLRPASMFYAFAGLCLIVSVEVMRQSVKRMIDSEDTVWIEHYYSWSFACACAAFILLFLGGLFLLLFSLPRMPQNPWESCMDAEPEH

fdb muscle fibers [3] = settings: earlier results of the inventors; cited from earlier work
[4] = biological target: T1, Cav1.1 channels (dihydropyridine receptors); settings: earlier results, stated in words; cited from earlier work
fdb muscle fibers [5] = assay: ATP release from fdb muscle fibers after 20 Hz electrical stimulation (luciferin/luciferase); assay type: cell-based, mouse; settings: pre-incubation 10 μM for 30 min
Procedure: Isolation of skeletal muscle fibers was performed from C57BL/J6 mice between 8 and 10 weeks of age. Isolated fibers were obtained from the flexor digitorum brevis (FoB) and Gastrocnemius muscle by enzymatic digestion for 90 min with 400 U/mL type II collagenase (Worthington Biochemicals Corp., Lakewood, NJ, USA) and mechanical dissociation with Pasteur pipettes, as previously described (Casas et.al, 2010). The isolated fibers were seeded in Petri dishes coated with a layer of Matrigel in Dulbecco's modified Eagle's culture medium (DMEM), supplemented with 10% horse serum, 50 U/mL penicillin and […] streptomycin. Cell cultures were used approximately 20 h after the fiber seeding process. All protocols were previously approved by the Bioethics Committee of the Faculty of Medicine of the University of Chile. […]
Extracellular ATP concentrations were determined using the CellTiter-Glo® Luminescent Cell Viability Assay Kit (Promega). […] After incubating for 10 min in the dark at room temperature, the samples were quantified in an FB12 (Berthold) luminometer. […] RNA normalization was preferred over total protein normalization since adult fiber cultures were seeded on a matrigel sheet, which has a large amount of protein and could alter the quantification process. […]

aged mice [6] = assay: Incremental strength test (weightlifting) in aged mice; assay type: in vivo, mouse
Procedure: The muscle function of aged mice (between 19 and 21 months of age) was assessed with an incremental strength test (weightlifting) and with an incremental treadmill running test. The measurement was made after 12 days of treatment with MP-2 (1 mg/Kg/day) administered via intraperitoneal injection. As a control, vehicle-injected mice were used in the same manner as drug-injected mice. Recovery of muscle function can be observed after treatment. Data were analyzed as the change in test performance at the end of treatment relative to performance at the start of treatment for each mouse. It is observed that the treatment improves the strength parameters more than 4 times with respect to the control. […] The mean±SEM is plotted. N=5 for each group, *: p<0.05
Two functional tests were performed in control (saline-injected) and MP-2-treated (daily intraperitoneal injections of 1 mg/Kg MP-2 for 12 days) mice.

aged mice [7] = assay: Incremental treadmill running test (endurance) in aged mice; assay type: in vivo, mouse
Procedure: The standardization of this test that evaluates resistance and strength was carried out in the treadmill equipment for rodents. The test consists of 5 sessions where the animals were acclimatized for 5 minutes at the equipment's minimum speed of 0.3 Km/h and the number of shots of compressed air that keep the animal trotting is counted. Once the acclimatization process was finished, the animals were evaluated in an incremental test consisting of 2-minute ramps at the minimum speed and then gradually increasing 0.1 Km/h after 2 minutes until the animal could no longer run. This maximum effort test is only performed once per session and is considered finished when the animal reaches the bottom of the ramp and accumulates 10 shots of compressed air in a period of 10 seconds.
The muscle function of aged mice (between 19 and 21 months of age) was assessed with an incremental strength test (weightlifting) and with an incremental treadmill running test. The measurement was made after 12 days of treatment with MP-2 (1 mg/Kg/day) administered via intraperitoneal injection. As a control, vehicle-injected mice were used in the same manner as drug-injected mice. Recovery of muscle function can be observed after treatment. Data were analyzed as the change in test performance at the end of treatment relative to performance at the start of treatment for each mouse. […]

[8] = aged mice 19-21 months, 1 mg/Kg/day i.p. for 12 days, change end vs start of treatment

Q: Which “mRNA levels of proinflammatory genes (TNF-α and IL-6)” value [1] does the source give for `Nc1ncnc2c1ncn2[C@@H]1O[C@H](COP(=O)(O)OP(=O)(O)OP(=O)(O)O)[C@@H](O)[C@H]1O` [ATP] here?
A: increase

Q: For `COCCOC(=O)C1=C(C)NC(C)=C(C(=O)OC(C)C)C1c1cccc([N+](=O)[O-])c1` (stereo not drawn) [Nimodipine], which inhibition at 10 µM [2] is on record?
A: 48 ± 10%

Q: For `CCOC(=O)C1=C(C)NC(C)=C(C(=O)OC)C1c1cccc([N+](=O)[O-])c1` (stereo not drawn) [Nitrendipine], which inhibition at 10 µM [2] is on record?
A: 47.6 ± 2%

Q: Which results are given for `COC(=O)C1=C(C)NC(C)=C([N+](=O)[O-])[C@H]1c1ccccc1C(F)(F)F` [(S)-(−)-BayK-8644]?
A: ATP outflow after electrical stimulation of the muscle fiber (earlier work) (fdb muscle fibers [3]): also inhibits ATP release; effect on Ca^2+ current through the DHPR channel (earlier work) [4]: increases Ca^2+ current

Q: With `COC(=O)C1=C(C)NC2=C(C(=O)OC2)C1c1ccccc1[N+](=O)[O-]` (stereo not drawn) [MP-2, methyl 2-methyl-4-(2-nitrophenyl)-5-oxo-1,4,5,7-tetrahydrofuro [3,4-b]pyridine-3-carboxylate] as the compound, how does the “inhibition of ATP outflow induced by 20 Hz electrical stimulation” value (fdb muscle fibers [5]) read?
A: inhibits the outflow of ATP; also recorded: indistinguishable from that of nifedipine

Q: What about the “inhibition of ATP outflow induced by 20 Hz electrical stimulation” value (fdb muscle fibers [5]; listed as MP2) of the same compound?
A: inhibits in a similar way as nifedipine

Q: What about the “improvement of strength parameters with respect to the control” value (aged mice [6]; [8]) of the same compound?
A: more than 4 times

Q: What about the “muscle strength in aged mice” value (aged mice [6]; aged mice (age>18 months)) of the same compound?
A: substantially improves their muscle strength

Q: And the “improvement in weight test (measure of strength)” value (aged mice [6]; daily i.p. 1 mg/Kg for 12 days)?
A: 64.4%

Q: What about the “increase in Endurance test (incremental treadmill test) over the control” value (aged mice [7]; [8]) of the same compound?
A: ~5 times

Q: What about the “improvement in treadmill test (measure of resistance)” value (aged mice [7]; daily i.p. 1 mg/Kg for 12 days) of the same compound?
A: 25%

Q: And the inhibition at 10 µM [2]?
A: 50 ± 8%

Q: With `COC(=O)C1=C(C)NC(C)=C(C(=O)OCCN(C)Cc2ccccc2)C1c1cccc([N+](=O)[O-])c1` (stereo not drawn) [Nicardipine] as the compound, how does the inhibition at 10 µM [2] read?
A: 32.6 ± 8%

Q: With `COC(=O)C1=C(C)NC(C)=C(C(=O)OCC(C)C)C1c1ccccc1[N+](=O)[O-]` (stereo not drawn) [Nisoldipine] as the compound, how does the inhibition at 10 µM [2] read?
A: 14.3 ± 7%
